Results as given in patent US6541463B1, “Inhibitors of type 5 and type 3 17β-hydroxysteroid dehydrogenase and methods for their use” (Endorecherche, Inc., priority 1998, dated 2003).
pIC50: −log10 of the molar value. Where two headings read alike, the source gives them in different places.

How the values were obtained:
estrogen receptor = target: T1, estrogen receptor (Rattus norvegicus, UniProt P06211); assay: Estrogen receptor (ER) assay: inhibition of [3H]E2 binding, uterine cytosol
T1 construct: from tissue; host or cells: uterine cytosol of gonadectomized female Sprague-Dawley rats
T1 sequence (P06211 1-600): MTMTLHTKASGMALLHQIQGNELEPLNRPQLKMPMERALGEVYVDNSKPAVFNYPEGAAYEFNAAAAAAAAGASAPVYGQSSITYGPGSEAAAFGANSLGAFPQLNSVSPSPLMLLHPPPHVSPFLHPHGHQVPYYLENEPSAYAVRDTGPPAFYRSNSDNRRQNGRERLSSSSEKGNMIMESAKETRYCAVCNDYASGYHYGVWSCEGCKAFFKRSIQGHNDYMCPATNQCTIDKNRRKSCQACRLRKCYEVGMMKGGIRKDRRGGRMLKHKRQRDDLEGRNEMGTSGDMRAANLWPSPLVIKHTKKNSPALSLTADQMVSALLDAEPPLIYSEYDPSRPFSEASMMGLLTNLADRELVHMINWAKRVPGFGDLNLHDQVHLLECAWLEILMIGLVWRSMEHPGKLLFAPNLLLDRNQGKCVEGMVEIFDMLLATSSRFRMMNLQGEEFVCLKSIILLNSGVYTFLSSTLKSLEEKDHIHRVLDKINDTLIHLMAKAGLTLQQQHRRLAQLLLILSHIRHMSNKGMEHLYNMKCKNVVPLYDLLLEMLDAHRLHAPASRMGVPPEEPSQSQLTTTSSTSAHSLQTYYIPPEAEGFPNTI
Procedure: Female Sprague-Dawley rats (Crl: CD(SD)Br) weighing 200-300 g were obtained from Charles-River Inc. (St-Constant, Québec, Canada). The rats were gonadectomized under general anesthesia (Isoflurane) and killed by cervical dislocation 24 hours later. The uteri were rapidly removed, dissected free from adhering tissue and frozen on dry-ice. Uteri were kept at −80° C. until assay. All subsequent steps were performed at 0-4° C. Uteri were homogenized in 10 vol (wt/vol) of buffer A (25 mM Tris-HCI, 1.5 mM EDTA disodium salt, 10 mM α-monothioglycerol, 10% glycerol, and 10 mM sodium molybdate, pH 7.4), using a Polytron PT-10 homogenizer (Brinkman Instruments, Canada) at a setting of 5 for three periods of 10 sec, with intervals of 10 sec for cooling. The homogenate was then centrifuged at 105,000×g for 60 min in a Beckman L5-65 ultracentrifuge (Fullerton, Calif.). The protein concentration of the cytosol fraction was measured according to the method of Bradford (Anal. Biochem. 72: 248-254, 1976), using bovine serum albumin as standard.
Estrogen binding was measured using the dextran-coated charcoal adsorption technique as described previously (Asselin et al., Endocrinology, 101: 666-671, 1977; Asselin and Labrie, J. Steroid Biochem., 9: 1079-1082, 1978). Briefly, [^3H]E2 solubilized in ethanol were diluted into buffer A. Aliquots of uterine cytosol preparation (0.1 ml) were incubated with 5 nM [^3H]E2 (˜200,000 cpm, 0.1 ml) in the presence or absence of the indicated concentrations of unlabeled compounds (0.1 ml, prepared in buffer A containing 10% ethanol) for 3 h at room temperature. Unbound steroids were then separated by incubation for 15 min at 0-4° C. with 0.3 ml 0.5% Norit-A and 0.05% Dextran T-70 in buffer B (1.5 mM EDTA disodium salt, 10 mM monothioglycerol, and 10 mM Tris-HCI, pH 7.4) and centrifuged at 3,000×g for 15 min. Aliquots of the supernatant (0.3 ml) were removed for radioactivity measurement.

[1] = test system: Shionogi mouse mammary carcinoma cells; assay: Antiandrogenic activity: inhibition of DHT-induced proliferation of Shionogi cells; assay type: cell-based; conditions: for pIC50: read-out: Antiandrogenic Activity Shionogi, DHT [IC50]
Procedure, shortened: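 Readout was direct Coulter counting of Shionogi mouse mammary tumour cells after 10–12 days' culture with increasing concentrations of agents and DHT, with medium refreshed every 3–4 days. Medium used dextran-coated charcoal-treated serum. Cells were plated at 20 000/well in triplicate, and ED50 came from least-square regression.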

[2] = Table 4′, DHT-induced proliferation, E^−6 (10^−6 M)
[3] = Table 4′, DHT-induced proliferation, E^−7

SMILES	% Inhibition Estrogen Receptor E^−6 (estrogen receptor; Table 4′, E^−6) [%]	% Inhibition Estrogen Receptor E^−8 (estrogen receptor; Table 4′, E^−8) [%]	Antiandrogenic Activity Shionogi, DHT E^−6 [1, 2] [%]	Antiandrogenic Activity Shionogi, DHT E^−7 [1, 3] [%]	other results
COc1ccc2c(c1)CCC1C2CCC2(C)C1CCC21CCC(C)(C)C(=O)O1 (stereo not drawn) [EM-1370]	2	0	−28	0	
CC1(C)CC[C@@]2(CCC3C4CCc5cc6oncc6cc5C4CC[C@@]32C)OC1=O (stereo partly drawn) [EM-1407-CS, 1,3,5(10)-estratrien-(2,3-oximino)-17(R)-spiro-2′-(5′,5′-dimethyl-6′-oxo)tetrahydropyran]	0	2	−96	−16	
COCCOc1cc2c(cc1C(=O)OC)C1CC[C@@]3(C)C(CC[C@@]34CCC(C)(C)C(=O)O4)C1CC2 (stereo partly drawn) [EM-1402-CS, 2-Carbomethoxy-3-(2″-methoxyethyloxy)-1,3,5(10)-estratrien 17(R)-spiro-2′-(5′,5′-dimethyl-6′-oxo)tetrahydropyran]	0	1	−87	−13	
CC1(C)CC[C@@]2(CCC3C4CCc5cc(F)ccc5C4CC[C@@]32C)OC1=O (stereo partly drawn) [EM-1157-CS]	0	0	−19	0	
COCCOc1ccc2c(c1)CCC1C2CCC2(C)C1CCC21CCC(C)(C)C(=O)O1 [EM-1368-CS, 3-Methoxyethoxy-1,3,5(10)-estratrien-17(R)-spiro-2′-(5′,5′-dimethyl-6′-oxo)-tetrahydropyran]	0	0	−44	0	
COc1cc2c(cc1C)C1CCC3(C)C(CCC34CCC(C)(C)C(=O)O4)C1CC2 (stereo not drawn) [EM-1412-CS]	0	0	−60	0	
CC12C=CC(=O)C=C1C=CC1C2CCC2(C)C(=O)C3(CCCCC3)CC12 (stereo not drawn) [CS-204]					% Inhibition Estrogen Receptor E^−6 (estrogen receptor; E^−6): 0%; % Inhibition Estrogen Receptor E^−8 (estrogen receptor; E^−8): 0%; Antiandrogenic Activity Shionogi, DHT E^−6 ([1]; with DHT, E^−6): −13; Antiandrogenic Activity Shionogi, DHT E^−7 ([1]; with DHT, E^−7): −25
CC1(C)CC[C@@]2(CCC3C4CCc5cc(C(N)=O)ccc5C4CCC32C)OC1=O (stereo partly drawn) [EM-1404]	0	0			IC50 ([1]; Mus musculus, Table 4′, bracketed values, read-out: Antiandrogenic Activity Shionogi, DHT [IC50 (nM)]): ~1000 nM
CC1(C)CCC2(CCC3C4CCc5cc(O)c([N+](=O)[O-])cc5C4CCC32C)OC1=O (stereo not drawn) [EM-1125-CS]	2	2	−43	−30	
COCCOc1cc2c(cc1C(F)(F)F)[C@H]1CC[C@@]3(C)[C@@H](CC[C@@]34CCC(C)(C)C(=O)O4)[C@@H]1CC2 [EM-1438, 3-(2′-Methoxyethoxy)-2-trifluoromethyl-1,3,5(10)-estratrien-17(R)-spiro-2′-(5′,5′-dimethyl-6′-oxo)tetrahydropyran]	0	4	−53	0	
COCCOc1cc2c(cc1Cl)C1CCC3(C)C(CCC34CCC(C)(C)C(=O)O4)C1CC2 (stereo not drawn) [EM-1371-CS]	1	2	−76	0	
CC(C)C[C@@H]1CC2C3C=CC4=CC(=O)CC[C@]4(C)C3CC[C@]2(C)C1=O (stereo partly drawn) [EM-1273-CS]					% Inhibition Estrogen Receptor E^−6 (estrogen receptor; E^−6): 0%; % Inhibition Estrogen Receptor E^−8 (estrogen receptor; E^−8): 0%; Antiandrogenic Activity Shionogi, DHT E^−6 ([1]; with DHT, E^−6): −43; Antiandrogenic Activity Shionogi, DHT E^−7 ([1]; with DHT, E^−7): 9
CC1(C)CCC2(CCC3C4CCc5ccccc5C4CCC32C)OC1=O (stereo not drawn) [CS-224]	2	0	−11	23	
CCCCN(C)C(=O)[C@@]1(OC(C)=O)CCC2C3C=C(C)C4=CC(=O)CC[C@]4(C)C3CC[C@@]21C (stereo partly drawn) [EM-1165]					% Inhibition Estrogen Receptor (estrogen receptor; E^−6): 0%; % Inhibition Estrogen Receptor (estrogen receptor; E^−8): 0%; Antiandrogenic Activity Shionogi, DHT ([1]; E^−6): −102; Antiandrogenic Activity Shionogi, DHT ([1]; E^−7): −14; pIC50 ([1]; Mus musculus): 6.63
COCCOc1cc2c(cc1C(N)=O)C1CC[C@@]3(C)C(CC[C@@]34CCC(C)(C)C(=O)O4)C1CC2 (stereo partly drawn) [EM-1424, 2-Carbamoyl-3-(2″-methoxyethyloxy)-1,3,5(10)-estratrien 17(R)-spiro-2′-(5′,5′-dimethyl-6′-oxo)tetrahydropyran]	3	3	−58	−22	
CCC(=O)O[C@]1(C(C)=O)CCC2C3C=C(C)C4=CC(=O)C[C@H](C)[C@]4(C)C3CC[C@@]21C (stereo partly drawn) [CS-243]					% Inhibition Estrogen Receptor (estrogen receptor; E^−6): 0%; % Inhibition Estrogen Receptor (estrogen receptor; E^−8): 1%; Antiandrogenic Activity Shionogi, DHT ([1]; E^−6): −129; Antiandrogenic Activity Shionogi, DHT ([1]; E^−7): −102; pIC50 ([1]; Mus musculus): 7.96
CCCC(=O)O[C@]1(C)C(=O)CCC2C3C=C(C)C4=CC(=O)CC[C@]4(C)C3CC[C@@]21C (stereo partly drawn) [EM-1078]					% Inhibition Estrogen Receptor E^−6 (estrogen receptor; E^−6): 0%; % Inhibition Estrogen Receptor E^−8 (estrogen receptor; E^−8): 5%; Antiandrogenic Activity Shionogi, DHT E^−6 ([1]; with DHT, E^−6): −72; Antiandrogenic Activity Shionogi, DHT E^−7 ([1]; with DHT, E^−7): −79
CC1CCC2(CCC3C4CCc5cc(O)c([N+](=O)[O-])cc5C4CCC32C)OC1=O [EM-1126, 2-Nitro-1,3,5(10)-estratrien-3-ol-17(R)-spiro-2′-(5′-methyl-6′-oxo)tetrahydropyran]	0	1	−49	0	
CC1(C)CC[C@@]2(CC[C@H]3[C@@H]4CCc5c(cc(Br)c(O)c5Br)[C@H]4CC[C@@]32C)OC1=O [EM-1382-CS]	3	0	0	0	
CC1(C)CCC2(CCC3C4CCc5cc(OCCN6CCCCC6)ccc5C4CCC32C)OC1=O [EM-1390-CS, 3-(N-piperidyl-ethyl)-1,3,5(10)-estratrien-17(R)-spiro-2′-(5′,5′-dimethyl-6′-oxo)-tetrahydropyran]	0	0	−119	−36	
